Measured values from the supplement of paper PMC3974653.
Counter-ions that a name gives are not always drawn.

These compounds were tested on MTT (mouse pheochromocytoma) (assay: IC50 of cell viability (ATP content)). Conditions: (24 or 48 h).
How it was run: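 Each well of a white 1536-well plate received 5 µl of MTT mouse pheochromocytoma cells at 200,000 cells/ml in DMEM containing 5% FBS and 1% horse serum. After overnight culture at 37°C, 5% CO2, cells were exposed for 24 or 48 hrs to 23 nl of library compound in DMSO, pinned at 8 final concentrations from 0.5 nM to 46 µM. CellTiter-Glo luminescence was read after 15 minutes, and IC50 was obtained from a four-parameter logistic fit of signals normalised to positive-control and DMSO wells.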

Row | IC50 of cell viability | Compound
1 | > 46 µM | Cc1ccccn1 [PICOLINE, ALPHA]
2 | > 46 µM | C/C=C/C=C/C(=O)O [Sorbic acid]
3 | > 46 µM | CC(=O)N[C@@H](CCC(=O)O)C(=O)O [DEANOLI ACEGLUMAS]
4 | > 46 µM | N=C(N)N1CCc2ccccc2C1 [Debrisoquin sulfate]
5 | > 46 µM | Cc1c(F)c(N2CCNC(C)C2)cc2c1c(=O)c(C(=O)O)cn2C1CC1 (stereo not given) [GREPAFLOXACIN HYDROCHLORIDE]
6 | > 46 µM | Cc1cc(N[S+](=O)([O-])c2ccc(N)cc2)no1 [Sulfamethoxazole]
7 | > 46 µM | CC(C)c1nc(CN(C)C(=O)N[C@H](C(=O)N[C@@H](Cc2ccccc2)C[C@H](O)[C@H](Cc2ccccc2)NC(=O)OCc2cncs2)C(C)C)cs1 [Ritonavir]
8 | > 46 µM | CN1CCCC[C@@H]1CCN1c2ccccc2Sc2ccc([S+](C)[O-])cc21 (stereo not given in full) [mesoridazine]
9 | > 46 µM | Cc1ncc(COP(=O)(O)O)c(C=O)c1O [PYRIDOXAL PHOSPHATE]
10 | > 46 µM | CC(c1ncncc1F)[C@](O)(Cn1cncn1)c1ccc(F)cc1F (stereo not given in full) [Voriconazole]
11 | > 46 µM | CN1CCN2c3ccccc3Cc3ccccc3C2C1 (stereo not given) [MIANSERIN]
12 | > 46 µM | CCN(CC)CCNC(=O)COc1ccc(Cl)cc1 [CLOFEXAMIDUM]
13 | > 46 µM | CCOC(=O)c1c(C)n(C)c2ccc(O)cc12 [Mecarbinate]
14 | > 46 µM | CC(=O)N[C@@H]1C(O)OC(CO)C(O)C1O (stereo not given in full) [ACETYLGLUCOSAMINE]
15 | > 46 µM | CCOC(=O)NNc1ccc(N(CC)CC(C)O)nn1 (stereo not given) [Cadralazine]
16 | > 46 µM | COC1=C(OC)C(=O)C(C/C=C(\C)CC/C=C(\C)CC/C=C(\C)CC/C=C(/C)CC/C=C(\C)CC/C=C(\C)CC/C=C(\C)CC/C=C(\C)CC/C=C(\C)CCC=C(C)C)=C(C)C1=O [Coenzyme Q10]
17 | > 46 µM | CCC(=O)[N-]S(=O)(=O)c1ccc(-c2c(-c3ccccc3)noc2C)cc1 [Parecoxib sodium]
18 | > 46 µM | C(=C\c1ccncc1)/c1ccccc1 [STYRYLPYRIDINIUM CHLORIDE]
19 | > 46 µM | CCCC(=O)O[C@@]1([C@@H](C)C[C@H]2[C@@H]3CCC\4=C\C(=O)\C=C/[C@@]4(C)[C@@]3(F)[C@H](O)C[C@]12C)C(=O)COC(=O)CC [Antebate]
20 | > 46 µM | CC(C[N+](C)(C)C)OC(N)=O (stereo not drawn) [CARBAMYL-beta-METHYLCHOLINE]

Row | Compound | IC50 of cell viability
21 | Oc1c(Br)cc(Br)cc1Br [2,4,6-Tribromophenol] | > 46 µM
22 | C#C[C@]1(OC(=O)CCCCCC)CC[C@H]2C3CCC4=CC(=O)CC[C@@H]4[C@H]3CC[C@@]21C (stereo not given in full) [Noristerat] | > 46 µM
23 | COP(=O)(OC)C(O)C(Cl)(Cl)Cl (stereo not given) [Trichlorfon] | > 46 µM
24 | NC(=O)C[S+]([O-])C(c1ccccc1)c1ccccc1 (stereo not given) [MODAFINIL] | > 46 µM
25 | CC[C@]1(c2cccc(O)c2)CCCCN(C)C1 [Meptazinol hydrochloride] | > 46 µM
26 | C/C(=C\c1csc(C)n1)[C@@H]1C[C@@H]2O[C@]2(C)CCC[C@H](C)[C@H](O)[C@@H](C)C(=O)C(C)(C)[C@@H](O)CC(=O)O1 [EPOTHILONE B] | > 46 µM
27 | CCOC(=O)/C=C(C)/C=C/CC(C)CCCC(C)C (stereo not given) [S-HYDROPRENE] | > 46 µM
28 | C[C@]12CC[C@H]3[C@@H](CCC4=CC(=O)CC[C@@H]43)[C@@H]1CC[C@@H]2O [Norandrostenolone] | > 46 µM
29 | CCC1(c2ccccc2)C(=O)N(COC)C(=O)N(COC)C1=O [ETEROBARBUM] | > 46 µM
30 | C=C/C=C/CC1=C(C)[C@@H](OC(=O)[C@@H]2[C@@H](/C=C(\C)C(=O)OC)C2(C)C)CC1=O.C=C/C=C/CC1=C(C)[C@@H](OC(=O)[C@@H]2[C@@H](C=C(C)C)C2(C)C)CC1=O [PYRETHRINS/Pestanal] | > 46 µM
